Laboratory results taken from ChEMBL document CHEMBL3507680, “University of Dundee, Gates Library screen for HepG2 cell viability”.

Test: Human HepG2 cell viability assay in 384 well format
Type: toxicity, cell-based
Parameters: dose 125 nL, time 70.5 hour; cytotoxicity at 70.5 h: concentration not given beside the values
Details: HepG2 cells, read-out: Inhibition

| Structure (SMILES) | cytotoxicity at 70.5 h |
| --- | --- |
| CN(C)C(=O)N1CC2(CCOCC2)c2cc(NC(=O)CCO)ccc21 | -0.169% |
| CCOCC1CN(C(=O)N(C)C)Cc2nnn(CC3CC3)c21 (stereo not given) | 4.98% |
| CS(=O)(=O)N1Cc2nc(C(=O)NCc3ccccc3)oc2C1 | -5.1% |
| O=C(C1CCOCC1)N1C[C@@H]2OCCN(CCN3CCCC3)[C@@H]2C1 | -3.55% |
| CC(=O)NCC(=O)N1Cc2nc(COCc3csc(C)n3)oc2C1 | -8.19% |
| Cn1nnc2c1C(COCC1CC1)CN(C(=O)[C@H]1CCCO1)C2 (stereo not given in full) | 0% |
| CC(=O)NCC(=O)N1CCc2nc(-c3ccccc3)nc(C)c2CC1 | -5.16% |
| C[C@@H]1C[C@H]2CN(C(=O)c3cccc4c3OCCO4)C[C@H]2O1 | -8.32% |
| CN(C)CC(=O)N1CC[C@H]2OCC[C@@]2(COCC2CC2)C1 | -11.9% |
| COc1cccc(CNC(=O)c2nc3c(o2)CN(S(C)(=O)=O)C3)c1 | -6.24% |
| CN(C)CCN1CCO[C@H]2CN(C(=O)C3CCOCC3)C[C@H]21 | -4.53% |
| CCS(=O)(=O)N1C[C@@H](c2nnc(C)o2)C[C@H]2OCC[C@H]21 | -9.81% |
| Cn1nc(C(=O)N2CCCC2)c2c1CN(CC1CCOCC1)C2 | 4.3% |
| O=C(C1CCC1)N1CCC2(CC1)CNCCO2 | 4.67% |
| CCN(CC)c1ccc2ccc(C(=O)N(C)C)cn12 | 8.29% |
| CCOCC(=O)N1CCCn2c(nnc2Cn2cccc2)C1 | 3.11% |
| CC(=O)N1CCC2(C1)c1ccccc1S(=O)(=O)N2Cc1ccccc1 (stereo not given) | 3.49% |
| Cc1noc([C@H]2C[C@H]3OCC[C@H]3N(S(C)(=O)=O)C2)n1 | 3.17% |
| CCS(=O)(=O)N1C[C@H](c2nc(C)no2)C[C@H]2OCC[C@H]21 | 5.21% |
| CCOCC1CN(Cc2ccc3c(c2)OCO3)Cc2nccn2C1 (stereo not given) | 0.869% |
| COc1cc(N2C[C@H]3OCC[C@H]3[C@H](C(=O)N3CCCC3)C2)ncn1 | 27.7% |
| NC(=O)N1CC[C@@H]2O[C@H](COCC(=O)N3CCCC3)CC[C@@H]21 | -0.223% |
| Cc1csc(CN2CC[C@H]3C[C@@H](c4nc(C)no4)O[C@@H]3C2)n1 | -7.69% |
| COCCNC(=O)[C@@H]1CN(c2cc(OC)ncn2)C[C@H]2OCC[C@H]21 | -7.76% |
| COCCN1C(=O)C[C@@H]2[C@H]1CCN2C(=O)c1ccc[nH]1 | -5.24% |
| CS(=O)(=O)N1CCOCC2(CCN(C(=O)c3ccco3)CC2)C1 | -8.61% |
| Cc1ccc(C(=O)N2CCC3(CC2)COCCN(S(C)(=O)=O)C3)cc1C | -6.37% |

| Structure (SMILES) | cytotoxicity at 70.5 h |
| --- | --- |
| Cc1ncsc1CN1C[C@H](C(=O)NC2CCCC2)[C@@H]2CCO[C@@H]2C1 | -1.79% |
| Cc1csc(CN2CC[C@H]3C[C@@H](c4nnc(C)[nH]4)O[C@@H]3C2)n1 | 0.739% |
| c1cc(N2CCC3(COCc4cnc(NCC5CC5)nc43)C2)ncn1 (stereo not given) | 32.2% |
| COC[C@@]12CCO[C@@H]1CCN(C(=O)c1ccc(F)c(F)c1)C2 | 0.0264% |
| O=C(c1ccco1)N1CCC[C@]2(C[C@H](Oc3ncccc3F)CO2)C1 | -1.08% |
| COC[C@@]12CCO[C@@H]1CCN(C(=O)Cc1cccc(F)c1)C2 | 2.86% |
| Cc1nnc(N2CCCC3(CN(Cc4nccn4C)CCO3)C2)o1 (stereo not given) | -0.85% |
| CCN1CC2(CC1=O)CN(C(=O)c1ccco1)CCN(C(=O)C(C)C)C2 (stereo not given) | 0.454% |
| c1cc(-c2ccc3c(c2)CCC32CCN(c3nncs3)CC2)co1 | -9.51% |
| c1ccc(CN2CCC3(COCc4cnc(NCC5CC5)nc43)C2)cc1 (stereo not given) | -3.62% |
| Cn1cc(N2CCC3(CCN(C(=O)c4cccn4C)C3)C2=O)cn1 (stereo not given) | -6.34% |
| Cc1nn(C)cc1Cn1cc(Cl)c(N)n1 | -1.77% |
| Cc1cc(OCc2ccc(C(=O)O)s2)ccc1Cl | -0.232% |
| O=C(O)c1ccc(COc2cccc(Cl)c2)s1 | -5.91% |
| CCn1nc(C)c(CN2CCNCC2)c1C | -5.76% |
| Cc1noc2nc(C3CC3)c(Cl)c(C(=O)O)c12 | -7.07% |
| Cc1ccc(Cn2nc(C)c3c(C(=O)O)c(Cl)c(C4CC4)nc32)cc1 | -4.45% |
| Cc1nn(C)c2nc(C3CC3)c(Cl)c(C(=O)O)c12 | 0.618% |
| COC(=O)Cn1c(=O)cc(C(F)F)c2c(C)nn(CC(F)F)c21 | -8.33% |
| Cc1nn(CC(F)F)c2c1c(C(F)F)cc(=O)n2CC(=O)O | 23.6% |
| CCn1ncc(-c2cc(C(F)(F)F)nc(N3CCC(N)CC3)n2)c1C | 8.37% |
| O=C(O)CCC(=O)Nc1nn(Cc2ccc(F)cc2)cc1Cl | 27.9% |
| Cc1nn(COc2cccc(F)c2)c(C)c1NC(=O)C1CC1 | 2.57% |
| Cc1c(CCC(=O)Nc2ccc(Br)cn2)cnn1C | -5.19% |
| Cc1c(CCC(=O)Nc2ccc(Cl)cn2)cnn1C | -1.57% |
| CCN(CC)C(=O)c1ccn(COc2c(Cl)cccc2Cl)n1 | -10.4% |
| CC(C)NC(=O)c1ccn(COc2c(Cl)cccc2Cl)n1 | -8.01% |

| Structure (SMILES) | cytotoxicity at 70.5 h |
| --- | --- |
| CCn1cc(CN(C)S(=O)(=O)c2ccccc2)cn1 | -6.94% |
| Cc1cc(C(=O)NCc2ccco2)nn1C | -11.3% |
| Cc1ccc(CNC(=O)c2cc(C)n(C)n2)o1 | -8.67% |
| CCN(CC)C(=O)c1ccn(COc2cccc(Cl)c2Cl)n1 | -2.31% |
| CCn1cc(CNC(=O)C2CCCC2)cn1 | -17.8% |
| CC1CCN(C(=O)C(C)Oc2ccc3c(c2)OCO3)CC1 (stereo not given) | 8.31% |
| CC(C(=O)N1CCOCC1)n1cc(Br)cn1 (stereo not given) | 12.3% |
| CC(=O)Nc1ncc(S(=O)(=O)Nc2cccc(F)c2)s1 | -8.84% |
| COc1ccc(NS(=O)(=O)c2cnc(NC(C)=O)s2)cc1 | -8.08% |
| O=C(NCc1ccco1)[C@@H]1COC[C@H]2CN(c3ncc(F)cn3)C[C@H]21 | -7.6% |
| Cc1cnc(N2C[C@@H]3[C@@H](C2)OCC(=O)N3CC(C)C)nc1 | 2.16% |
| Cc1cccc(S(=O)(=O)N2CC[C@H]3[C@H]2CCN3c2ncccn2)c1 | -6.57% |
| Cc1nnc([C@]23COC[C@H]2CN(Cc2cnn(C)c2)C3)o1 | -4.29% |
| O=C(c1cnccn1)N1C[C@@H]2C[C@@H](c3nc(C4CC4)cs3)O[C@@H]2C1 | -1.34% |
| COCCN1C2(CCN(CC3CC3)C2)c2ccccc2S1(=O)=O (stereo not given) | 4.8% |
| Cc1nc(CN2C(=O)COC3(CCN(Cc4ccsc4)CC3)C2C)cs1 (stereo not given) | -1.09% |
| Cn1cccc1CN1CCC2(CC1)CN(c1ccccc1)C(=O)CO2 | 2.21% |
| Cc1cccc(CN2C[C@@H]3OCCN(c4ccnc(N(C)C)n4)[C@@H]3C2)c1 | 10% |
| CC(C)N(C)Cc1cnc2n1CCN(C(=O)Cc1ccsc1)C2 | 3.66% |
| O=C(c1cccc(O)c1)N1CCC2(CCN2c2ncccn2)C1 (stereo not given) | 2.82% |
| O=C(C[C@@H]1COC[C@H]2CN(C(=O)c3ccccn3)C[C@@H]12)N1CCCC1 | 1.42% |
| O=C1COC2(CCN(Cc3ccoc3)CC2)CN1c1ccccc1 | 5.1% |
| O=C1COC2(CCN(Cc3cccs3)CC2)CN1c1ccsc1 | 1.63% |
| COCCNC(=O)[C@H]1CN(Cc2cccs2)C[C@H]2OCC[C@@H]12 | 25.4% |
| O=C1C[C@H]2[C@@H](CCN2C(=O)c2ccc[nH]2)N1CCN1CCCC1 | -2.17% |
| Cn1cc(CN2CCC3(CC2)CCN(C(=O)c2cscn2)C3)cn1 | -3.37% |
| O=C(c1cccnc1)N1CCC2(CC1)COCCN(c1ncccn1)C2 | -9.03% |

| Structure (SMILES) | cytotoxicity at 70.5 h |
| --- | --- |
| O=C(c1ccncn1)N1CCC[C@]2(C[C@H](Oc3ncccc3F)CO2)C1 | 23.2% |
| O=C(c1ncccn1)N1CCC[C@]2(C[C@@H](Oc3ncccc3F)CO2)C1 | 21.8% |
| O=C(Cc1ccsc1)N1C[C@@H]2OCCN(CC3CCCO3)[C@@H]2C1 (stereo not given in full) | 7.05% |
| COCC(=O)N1C[C@@H]2CCCO[C@@H]2[C@H](N(C)Cc2ccco2)C1 | -3.25% |
| O=C(Cc1ccccc1)N1C[C@@H]2OCCN(CC3CCCO3)[C@@H]2C1 (stereo not given in full) | -6.14% |
| O=C(N[C@@H]1CN[C@@H]2CCCO[C@@H]21)c1cscn1 | -3.45% |
| CN(Cc1ccco1)[C@@H]1CN(C(=O)c2cnccn2)C[C@@H]2CCCO[C@@H]21 | -2.85% |
| Cc1cccc(C(=O)N2CCC3(CCN(c4cnn(C)c4)C3=O)C2)n1 (stereo not given) | -1.73% |
| CN(C)S(=O)(=O)N1CCO[C@H]2[C@H](Oc3cccnc3)CC[C@@H]21 | -3.81% |
| Cc1cccc(CN2C[C@H]3C[C@H](C(=O)NCc4cccnc4)[C@@H](C2)O3)c1 | 25% |
| N#Cc1cccc(CN2Cc3nccn3CC(CN3CCCC3)C2)c1 (stereo not given) | 0.61% |
| O=C1COC2(CCN(Cc3cccs3)CC2)CN1c1cccnc1 | 5.94% |
| Cc1ccc(N2CCC3(CC2)COCCN(c2nccs2)C3)nn1 | 2.35% |
| Cc1nc(CO[C@H]2CN(Cc3cccs3)[C@@H]3COC[C@H]23)cs1 | -3.05% |
| Cc1cccc(CN2C[C@H](OCc3csc(C)n3)[C@H]3COC[C@H]32)n1 | -3.75% |
| c1cc(CN2CCc3ncc(CN4CCCCC4)n3CC2)cs1 | 19.1% |
| COCc1nn(C(C)C)c2c1CCN(Cc1ccccn1)C2 | -3.77% |
| O=C(c1cccnc1)N1CCC[C@]2(C[C@H](Oc3ncccc3F)CO2)C1 | 0.397% |
| CN1Cc2cnn(CC3CCCC3)c2C(COCC2CC2)C1 (stereo not given) | -1.16% |
| CN1CC(=O)N(c2cccc(F)c2)CC12CCN(Cc1cnn(C)c1)C2 (stereo not given) | 4.08% |
| COCCN1C[C@@H]2[C@@H](OC)CCN(Cc3ccco3)[C@@H]2C1 | -3.76% |
| Cc1nnc(N2CCCC3(CN(Cc4cnn(C)c4)CCO3)C2)o1 (stereo not given) | -5.09% |
| Cc1ccc(CN2Cc3c(C(=O)N4CCN(C)CC4)nn(C)c3C2)s1 | -3.87% |
| COCCN1C[C@@H]2[C@@H](OC)CCN(Cc3ccncc3)[C@@H]2C1 | -0.354% |
